Measurements as given in US20250269072A1, “PROCESSES FOR PREPARING RADIOLABELLED CONJUGATES” (CENTENARY INSTITUTE OF CANCER MEDICINE AND CELL BIOLOGY, priority 2021, published 2025).
Values joined by “and” are separate entries in the source; they are usually repeats but may differ in a detail not shown here. Equal entries are not always repeated. “Also recorded” adds a separate entry of the source.

Key:
Human studies: safety = format: in vivo; conditions: patients 1-4, 200-207 MBq
Text: patient with squamous cell carcinoma of the oesophagus • 2. Person with metastatic ovarian carcinoma • 3. Person with metastatic cutaneous squamous cell carcinoma • 4. Person with invasive ductal breast carcinoma.

[1] = In-human study of ^68Ga-CDI: radiation dosimetry (OLINDA/EXM 1.1); format: in vivo; conditions: 5 participants
Text: Activity concentrations derived above were entered into OLINDA/EXM 1.1 and bi-exponential curves fitted using the curve fitting tools within OLINDA/EXM 1.1 (Stabin et al., J Nucl Med. 2005; 46:1023-1027).

[2] = Human radiation dosimetry estimated from rat biodistribution (OLINDA/EXM); format: in vivo, human (standard adult male); conditions: from rat data
Protocol: For the voiding bladder model it was assumed that patients would void 1 hour following administration.

Q: What does the source list for `O=C(O)CNC(=O)[C@H](CSCC(=O)Nc1ccc([As](O)O)cc1)NC(=O)CC[C@H](NC(=O)CCC1C(=O)[O][68Ga]2[O]C(=O)CN3CCN(CCN1CC3)CC(=O)[O]2)C(=O)O` (stereo partly drawn) [^68Ga-NODAGA-GSAO]?
A: adverse events (Human studies: safety): no related or unrelated serious adverse events or adverse events; also recorded: safe, well-tolerated and without adverse effects; Estimated radiation dose, Average ([1]; Adrenals): 1.28E−02 mSv/MBq; Estimated radiation dose, Average ([1]; Brain): 1.75E−03 mSv/MBq; Estimated radiation dose, Average ([1]; Breasts): 7.03E−03 mSv/MBq; Estimated radiation dose, Average ([1]; Effective dose, listed as 68Ga-CDI): 2.17E-02±4.61E-03 mSv/MBq and 2.17E−02 mSv/MBq; Estimated radiation dose, Average ([1]; Gallbladder Wall): 8.16E−03 mSv/MBq; Estimated radiation dose, Average ([1]; Heart Wall): 1.02E−02 mSv/MBq; Estimated radiation dose, Average ([1]; Kidneys, listed as 68Ga-CDI): 4.89E-02±3.55E-03 mSv/MBq and 4.89E−02 mSv/MBq; Estimated radiation dose, Average ([1]; LLI Wall): 1.91E−02 mSv/MBq; Estimated radiation dose, Average ([1]; Liver): 1.61E−02 mSv/MBq; Estimated radiation dose, Average ([1]; Lungs): 7.75E−03 mSv/MBq; Estimated radiation dose, Average ([1]; Muscle): 8.96E−03 mSv/MBq; Estimated radiation dose, Average ([1]; Osteogenic Cells): 1.13E−02 mSv/MBq; Estimated radiation dose, Average ([1]; Ovaries): 1.20E−02 mSv/MBq; Estimated radiation dose, Average ([1]; Pancreas): 1.52E−02 mSv/MBq; Estimated radiation dose, Average ([1]; Red Marrow): 8.89E−03 mSv/MBq; Estimated radiation dose, Average ([1]; Skin): 5.39E−03 mSv/MBq; Estimated radiation dose, Average ([1]; Small Intestine): 1.45E−02 mSv/MBq; Estimated radiation dose, Average ([1]; Spleen): 1.59E−02 mSv/MBq; Estimated radiation dose, Average ([1]; Stomach Wall): 1.00E−02 mSv/MBq; Estimated radiation dose, Average ([1]; Testes): 1.67E−02 mSv/MBq; Estimated radiation dose, Average ([1]; Thymus): 6.32E−03 mSv/MBq; Estimated radiation dose, Average ([1]; Thyroid): 1.26E−02 mSv/MBq; Estimated radiation dose, Average ([1]; Total Body): 9.66E−03 mSv/MBq; Estimated radiation dose, Average ([1]; ULI Wall): 1.23E−02 mSv/MBq; Estimated radiation dose, Average ([1]; Urinary Bladder Wall, listed as 68Ga-CDI): 2.79E-01±1.11E-01 mSv/MBq and 2.79E−01 mSv/MBq; Estimated radiation dose, Average ([1]; Uterus): 2.63E−02 mSv/MBq; Alpha dose ([2]; Adrenals): 0.00E000 mSv/MBq; Beta dose ([2]; Adrenals): 2.13E−03 mSv/MBq; ED Cont. ([2]; Adrenals): 2.01E−05 mSv/MBq; Total dose ([2]; Adrenals): 4.02E−03 mSv/MBq; Alpha dose ([2]; Brain): 0.00E000 mSv/MBq; Beta dose ([2]; Brain): 8.15E−04 mSv/MBq; ED Cont. ([2]; Brain): 6.94E−06 mSv/MBq; Total dose ([2]; Brain): 1.39E−03 mSv/MBq; Alpha dose ([2]; Breasts): 0.00E000 mSv/MBq; Beta dose ([2]; Breasts): 2.13E−03 mSv/MBq; ED Cont. ([2]; Breasts): 1.51E−04 mSv/MBq; Total dose ([2]; Breasts): 3.02E−03 mSv/MBq; Alpha dose ([2]; Gallbladder Wall): 0.00E000 mSv/MBq; Beta dose ([2]; Gallbladder Wall): 2.13E−03 mSv/MBq; ED Cont. ([2]; Gallbladder Wall): 0.00E000 mSv/MBq; Total dose ([2]; Gallbladder Wall): 4.28E−03 mSv/MBq; Alpha dose ([2]; Heart Wall): 0.00E000 mSv/MBq; Beta dose ([2]; Heart Wall): 3.09E−03 mSv/MBq; ED Cont. ([2]; Heart Wall): 0.00E000 mSv/MBq; Photon dose ([2]; Heart Wall): 1.55E−03 mSv/MBq; Total dose ([2]; Heart Wall): 4.65E−03 mSv/MBq; Alpha dose ([2]; Kidneys): 0.00E000 mSv/MBq; Beta dose ([2]; Kidneys): 2.27E−02 mSv/MBq; ED Cont. ([2]; Kidneys): 1.31E−04 mSv/MBq; Photon dose ([2]; Kidneys): 3.56E−03 mSv/MBq; Total dose ([2]; Kidneys): 2.62E−02 mSv/MBq; Alpha dose ([2]; LLI Wall): 0.00E000 mSv/MBq; Beta dose ([2]; LLI Wall): 2.13E−03 mSv/MBq; ED Cont. ([2]; LLI Wall): 8.67E−04 mSv/MBq; Total dose ([2]; LLI Wall): 7.23E−03 mSv/MBq; Alpha dose ([2]; Liver): 0.00E000 mSv/MBq; Beta dose ([2]; Liver): 4.76E−03 mSv/MBq; ED Cont. ([2]; Liver): 3.40E−04 mSv/MBq; Photon dose ([2]; Liver): 2.04E−03 mSv/MBq; Total dose ([2]; Liver): 6.80E−03 mSv/MBq; Alpha dose ([2]; Lungs): 0.00E000 mSv/MBq; Beta dose ([2]; Lungs): 5.42E−03 mSv/MBq; ED Cont. ([2]; Lungs): 8.16E−04 mSv/MBq; Total dose ([2]; Lungs): 6.80E−03 mSv/MBq; Alpha dose ([2]; Muscle): 0.00E000 mSv/MBq; ED Cont. ([2]; Muscle): 2.09E−05 mSv/MBq; Total dose ([2]; Muscle): 4.18E−03 mSv/MBq; Alpha dose ([2]; Osteogenic Cells): 0.00E000 mSv/MBq; Beta dose ([2]; Osteogenic Cells): 3.31E−03 mSv/MBq; ED Cont. ([2]; Osteogenic Cells): 4.98E−05 mSv/MBq; Total dose ([2]; Osteogenic Cells): 4.98E−03 mSv/MBq; Alpha dose ([2]; Ovaries): 0.00E000 mSv/MBq; Beta dose ([2]; Ovaries): 2.13E−03 mSv/MBq; ED Cont. ([2]; Ovaries): 1.40E−03 mSv/MBq; Total dose ([2]; Ovaries): 7.02E−03 mSv/MBq; Alpha dose ([2]; Pancreas): 0.00E000 mSv/MBq; Beta dose ([2]; Pancreas): 3.87E−03 mSv/MBq; ED Cont. ([2]; Pancreas): 2.95E−05 mSv/MBq; Total dose ([2]; Pancreas): 5.90E−03 mSv/MBq; Alpha dose ([2]; Red Marrow): 0.00E000 mSv/MBq; Beta dose ([2]; Red Marrow): 1.49E−03 mSv/MBq; ED Cont. ([2]; Red Marrow): 4.05E−04 mSv/MBq; Total dose ([2]; Red Marrow): 3.38E−03 mSv/MBq; Alpha dose ([2]; Skin): 0.00E000 mSv/MBq; Beta dose ([2]; Skin): 2.13E−03 mSv/MBq; ED Cont. ([2]; Skin): 3.19E−05 mSv/MBq; Total dose ([2]; Skin): 3.19E−03 mSv/MBq; Alpha dose ([2]; Small Intestine): 0.00E000 mSv/MBq; Beta dose ([2]; Small Intestine): 5.18E−03 mSv/MBq; ED Cont. ([2]; Small Intestine): 4.10E−05 mSv/MBq; Photon dose ([2]; Small Intestine): 3.03E−03 mSv/MBq; Total dose ([2]; Small Intestine): 8.21E−03 mSv/MBq; Alpha dose ([2]; Spleen): 0.00E000 mSv/MBq; Beta dose ([2]; Spleen): 4.05E−03 mSv/MBq; ED Cont. ([2]; Spleen): 2.95E−05 mSv/MBq; Total dose ([2]; Spleen): 5.91E−03 mSv/MBq; Alpha dose ([2]; Stomach Wall): 0.00E000 mSv/MBq; Beta dose ([2]; Stomach Wall): 2.61E−03 mSv/MBq; ED Cont. ([2]; Stomach Wall): 5.06E−04 mSv/MBq; Photon dose ([2]; Stomach Wall): 1.61E−03 mSv/MBq; Total dose ([2]; Stomach Wall): 4.22E−03 mSv/MBq; Alpha dose ([2]; Testes): 0.00E000 mSv/MBq; Beta dose ([2]; Testes): 2.21E−03 mSv/MBq; ED Cont. ([2]; Testes): 0.00E000 mSv/MBq; Total dose ([2]; Testes): 5.69E−03 mSv/MBq; Alpha dose ([2]; Thymus): 0.00E000 mSv/MBq; Beta dose ([2]; Thymus): 4.48E−03 mSv/MBq; ED Cont. ([2]; Thymus): 2.92E−05 mSv/MBq; Total dose ([2]; Thymus): 5.84E−03 mSv/MBq; Alpha dose ([2]; Thyroid): 0.00E000 mSv/MBq; Beta dose ([2]; Thyroid): 2.13E−03 mSv/MBq; ED Cont. ([2]; Thyroid): 1.64E−04 mSv/MBq; Total dose ([2]; Thyroid): 3.28E−03 mSv/MBq; Alpha dose ([2]; Total Body): 0.00E000 mSv/MBq; Beta dose ([2]; Total Body): 2.68E−03 mSv/MBq; ED Cont. ([2]; Total Body): 0.00E000 mSv/MBq; Total dose ([2]; Total Body): 4.61E−03 mSv/MBq; Alpha dose ([2]; ULI Wall): 0.00E000 mSv/MBq; Beta dose ([2]; ULI Wall): 2.53E−03 mSv/MBq; ED Cont. ([2]; ULI Wall): 2.58E−05 mSv/MBq; Photon dose ([2]; ULI Wall): 2.63E−03 mSv/MBq; Total dose ([2]; ULI Wall): 5.18E−03 mSv/MBq; Alpha dose ([2]; Urinary Bladder Wall): 0.00E000 mSv/MBq; Beta dose ([2]; Urinary Bladder Wall): 2.84E−01 mSv/MBq; ED Cont. ([2]; Urinary Bladder Wall): 1.62E−02 mSv/MBq; Total dose ([2]; Urinary Bladder Wall): 3.24E−01 mSv/MBq; Alpha dose ([2]; Uterus): 0.00E000 mSv/MBq; Beta dose ([2]; Uterus): 2.13E−03 mSv/MBq; ED Cont. ([2]; Uterus): 5.77E−05 mSv/MBq; Total dose ([2]; Uterus): 1.15E−02 mSv/MBq; dose to urinary bladder wall (dose limiting organ) [2]: 0.32 mSv/MBq; whole body effective dose [2]: 2.13E-02 mSv/MBq and 0.021 mSv/MBq; whole body effective dose ([2]; injected activity 150 MBq): 3.2 mSv
